# Values quoted from earlier work in patent US20120040397A1, “Photo-Crosslinked Nucleic Acid Hydrogels” (priority 2008, published 2012).
# Key:
# [1] = biological target: T1, PPAR-gamma (Homo sapiens, UniProt P37231); settings: context-specific, depends on cell type
# T1 sequence (P37231 1-505): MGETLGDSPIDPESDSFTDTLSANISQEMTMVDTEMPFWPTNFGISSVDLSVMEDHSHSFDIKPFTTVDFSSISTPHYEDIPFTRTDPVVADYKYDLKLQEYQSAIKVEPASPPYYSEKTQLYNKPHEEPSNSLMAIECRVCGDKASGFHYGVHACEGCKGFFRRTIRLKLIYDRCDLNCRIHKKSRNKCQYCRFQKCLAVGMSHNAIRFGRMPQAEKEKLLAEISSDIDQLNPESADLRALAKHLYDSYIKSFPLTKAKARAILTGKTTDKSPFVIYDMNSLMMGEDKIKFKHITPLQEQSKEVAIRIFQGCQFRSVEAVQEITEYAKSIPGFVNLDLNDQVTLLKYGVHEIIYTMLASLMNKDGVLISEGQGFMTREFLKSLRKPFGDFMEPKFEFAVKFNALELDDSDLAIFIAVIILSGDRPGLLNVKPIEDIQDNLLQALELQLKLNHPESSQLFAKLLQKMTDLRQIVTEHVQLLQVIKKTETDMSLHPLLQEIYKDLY
# [2] = in vivo
structure (smiles),measurement,setting,value
"O=C1NC(=O)C(Cc2ccc3cc(OCc4ccccc4F)ccc3c2)S1 (stereo not drawn) [netoglitazone, 5-[{6-(2-fluorobenzyl)oxy-2-naphthyl}methyl]-2,4-thiazolidinedione]",PPAR-gamma modulation,[1],full agonist of PPAR-gamma and as a partial agonist or antagonist in others
same,"efficacy in lowering plasma glucose, insulin, and triglyceride levels versus pioglitazone and troglitazone",[2],more efficacious
same,potency relative to rosiglitazone,[2],about three-fold
